Data: paper PMC4757768, “Mechanisms of amphetamine action illuminated through optical monitoring of dopamine synaptic vesicles in Drosophila brain” (Nature Communications, 2016)

Target: T1, VMAT2 (Rattus norvegicus, UniProt Q01827)
T1 construct: gene Slc18a2
Assay: inhibition of [3H]dopamine uptake in digitonin-treated HEK293 cells stably expressing rat VMAT2; binding Ki […] at mammalian VMAT2 also reported
Type: cell-based

T1 sequence (Q01827 whole entry): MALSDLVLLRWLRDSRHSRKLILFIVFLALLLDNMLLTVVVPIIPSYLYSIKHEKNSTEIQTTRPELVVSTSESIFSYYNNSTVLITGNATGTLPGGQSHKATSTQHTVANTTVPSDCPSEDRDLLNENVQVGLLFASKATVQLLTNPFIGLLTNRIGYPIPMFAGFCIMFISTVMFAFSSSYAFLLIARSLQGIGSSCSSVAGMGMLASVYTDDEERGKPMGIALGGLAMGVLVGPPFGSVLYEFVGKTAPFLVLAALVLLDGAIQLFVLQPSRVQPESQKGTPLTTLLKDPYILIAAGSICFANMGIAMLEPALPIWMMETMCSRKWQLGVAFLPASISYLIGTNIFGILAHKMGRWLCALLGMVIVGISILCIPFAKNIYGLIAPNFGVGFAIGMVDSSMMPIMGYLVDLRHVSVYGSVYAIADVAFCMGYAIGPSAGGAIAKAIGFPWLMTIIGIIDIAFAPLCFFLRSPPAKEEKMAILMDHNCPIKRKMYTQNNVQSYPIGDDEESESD

## COc1cc2c(cc1O)[C@H]1CC(=O)[C@H](CC(C)C)CN1CC2 [(+)-CYY477]
  IC50: 26 nM
